# Source: the OligoGym collection
# Oligonucleotides are given in HELM: sugar(base)linkage, 5' to 3'; d 2'-deoxyribose, r ribose, m 2'-O-methylribose, p phosphate. ss, as = sense and antisense strand
# Biological target: UBE2N
# Assay: reporter assay of Huesken 2005
# Details: siRNA
# Note: test concentration or dose not given here.
row,Substance,normalised inhibition (eCFP-eYFP dual reporter)
1,RNA1{r(A)p.r(A)p.r(G)p.r(C)p.r(C)p.r(A)p.r(U)p.r(A)p.r(G)p.r(A)p.r(A)p.r(A)p.r(C)p.r(A)p.r(G)p.r(C)p.r(U)p.r(A)p.r(G)p.d(T)p.d(T)}|RNA2{r(C)p.r(U)p.r(A)p.r(G)p.r(C)p.r(U)p.r(G)p.r(U)p.r(U)p.r(U)p.r(C)p.r(U)p.r(A)p.r(U)p.r(G)p.r(G)p.r(C)p.r(U)p.r(U)p.d(G)p.d(G)}$$$RNA1{StrandType:ss}|RNA2{StrandType:as}$,90.4%
2,RNA1{r(A)p.r(A)p.r(G)p.r(C)p.r(C)p.r(C)p.r(A)p.r(A)p.r(G)p.r(C)p.r(C)p.r(A)p.r(U)p.r(A)p.r(G)p.r(A)p.r(A)p.r(A)p.r(C)p.d(T)p.d(T)}|RNA2{r(G)p.r(U)p.r(U)p.r(U)p.r(C)p.r(U)p.r(A)p.r(U)p.r(G)p.r(G)p.r(C)p.r(U)p.r(U)p.r(G)p.r(G)p.r(G)p.r(C)p.r(U)p.r(U)p.d(C)p.d(G)}$$$RNA1{StrandType:ss}|RNA2{StrandType:as}$,61.1%
3,RNA1{r(A)p.r(A)p.r(G)p.r(C)p.r(C)p.r(G)p.r(A)p.r(A)p.r(C)p.r(C)p.r(A)p.r(G)p.r(A)p.r(U)p.r(G)p.r(A)p.r(G)p.r(A)p.r(G)p.d(T)p.d(T)}|RNA2{r(C)p.r(U)p.r(C)p.r(U)p.r(C)p.r(A)p.r(U)p.r(C)p.r(U)p.r(G)p.r(G)p.r(U)p.r(U)p.r(C)p.r(G)p.r(G)p.r(C)p.r(U)p.r(U)p.d(T)p.d(G)}$$$RNA1{StrandType:ss}|RNA2{StrandType:as}$,88.3%
4,RNA1{r(A)p.r(A)p.r(G)p.r(U)p.r(G)p.r(G)p.r(U)p.r(C)p.r(C)p.r(C)p.r(C)p.r(A)p.r(G)p.r(C)p.r(A)p.r(C)p.r(U)p.r(G)p.r(C)p.d(T)p.d(T)}|RNA2{r(G)p.r(C)p.r(A)p.r(G)p.r(U)p.r(G)p.r(C)p.r(U)p.r(G)p.r(G)p.r(G)p.r(G)p.r(A)p.r(C)p.r(C)p.r(A)p.r(C)p.r(U)p.r(U)p.d(A)p.d(T)}$$$RNA1{StrandType:ss}|RNA2{StrandType:as}$,48.2%
5,RNA1{r(A)p.r(A)p.r(U)p.r(G)p.r(U)p.r(A)p.r(G)p.r(A)p.r(C)p.r(A)p.r(A)p.r(G)p.r(U)p.r(U)p.r(G)p.r(G)p.r(G)p.r(A)p.r(A)p.d(T)p.d(T)}|RNA2{r(U)p.r(U)p.r(C)p.r(C)p.r(C)p.r(A)p.r(A)p.r(C)p.r(U)p.r(U)p.r(G)p.r(U)p.r(C)p.r(U)p.r(A)p.r(C)p.r(A)p.r(U)p.r(U)p.d(A)p.d(G)}$$$RNA1{StrandType:ss}|RNA2{StrandType:as}$,93.8%
6,RNA1{r(A)p.r(C)p.r(C)p.r(A)p.r(A)p.r(A)p.r(A)p.r(U)p.r(U)p.r(U)p.r(A)p.r(U)p.r(C)p.r(A)p.r(U)p.r(C)p.r(C)p.r(U)p.r(A)p.d(T)p.d(T)}|RNA2{r(U)p.r(A)p.r(G)p.r(G)p.r(A)p.r(U)p.r(G)p.r(A)p.r(U)p.r(A)p.r(A)p.r(A)p.r(U)p.r(U)p.r(U)p.r(U)p.r(G)p.r(G)p.r(U)p.d(C)p.d(A)}$$$RNA1{StrandType:ss}|RNA2{StrandType:as}$,81.6%
7,RNA1{r(A)p.r(C)p.r(C)p.r(A)p.r(G)p.r(U)p.r(U)p.r(C)p.r(C)p.r(U)p.r(G)p.r(G)p.r(C)p.r(A)p.r(U)p.r(C)p.r(A)p.r(A)p.r(A)p.d(T)p.d(T)}|RNA2{r(U)p.r(U)p.r(U)p.r(G)p.r(A)p.r(U)p.r(G)p.r(C)p.r(C)p.r(A)p.r(G)p.r(G)p.r(A)p.r(A)p.r(C)p.r(U)p.r(G)p.r(G)p.r(U)p.d(T)p.d(C)}$$$RNA1{StrandType:ss}|RNA2{StrandType:as}$,97.4%
8,RNA1{r(A)p.r(C)p.r(C)p.r(C)p.r(A)p.r(A)p.r(U)p.r(G)p.r(G)p.r(C)p.r(A)p.r(G)p.r(C)p.r(C)p.r(C)p.r(C)p.r(U)p.r(A)p.r(A)p.d(T)p.d(T)}|RNA2{r(U)p.r(U)p.r(A)p.r(G)p.r(G)p.r(G)p.r(G)p.r(C)p.r(U)p.r(G)p.r(C)p.r(C)p.r(A)p.r(U)p.r(U)p.r(G)p.r(G)p.r(G)p.r(U)p.d(A)p.d(T)}$$$RNA1{StrandType:ss}|RNA2{StrandType:as}$,64%
9,RNA1{r(A)p.r(C)p.r(G)p.r(A)p.r(A)p.r(G)p.r(C)p.r(C)p.r(C)p.r(A)p.r(A)p.r(G)p.r(C)p.r(C)p.r(A)p.r(U)p.r(A)p.r(G)p.r(A)p.d(T)p.d(T)}|RNA2{r(U)p.r(C)p.r(U)p.r(A)p.r(U)p.r(G)p.r(G)p.r(C)p.r(U)p.r(U)p.r(G)p.r(G)p.r(G)p.r(C)p.r(U)p.r(U)p.r(C)p.r(G)p.r(U)p.d(T)p.d(G)}$$$RNA1{StrandType:ss}|RNA2{StrandType:as}$,77.5%
10,RNA1{r(A)p.r(C)p.r(G)p.r(C)p.r(C)p.r(C)p.r(G)p.r(U)p.r(U)p.r(A)p.r(U)p.r(U)p.r(U)p.r(U)p.r(C)p.r(A)p.r(U)p.r(G)p.r(U)p.d(T)p.d(T)}|RNA2{r(A)p.r(C)p.r(A)p.r(U)p.r(G)p.r(A)p.r(A)p.r(A)p.r(A)p.r(U)p.r(A)p.r(A)p.r(C)p.r(G)p.r(G)p.r(G)p.r(C)p.r(G)p.r(U)p.d(T)p.d(G)}$$$RNA1{StrandType:ss}|RNA2{StrandType:as}$,62.4%
11,RNA1{r(A)p.r(C)p.r(G)p.r(U)p.r(U)p.r(U)p.r(C)p.r(A)p.r(U)p.r(G)p.r(A)p.r(C)p.r(C)p.r(A)p.r(A)p.r(A)p.r(A)p.r(U)p.r(U)p.d(T)p.d(T)}|RNA2{r(A)p.r(A)p.r(U)p.r(U)p.r(U)p.r(U)p.r(G)p.r(G)p.r(U)p.r(C)p.r(A)p.r(U)p.r(G)p.r(A)p.r(A)p.r(A)p.r(C)p.r(G)p.r(U)p.d(A)p.d(C)}$$$RNA1{StrandType:ss}|RNA2{StrandType:as}$,92.1%
12,RNA1{r(A)p.r(C)p.r(U)p.r(U)p.r(G)p.r(A)p.r(A)p.r(C)p.r(U)p.r(A)p.r(U)p.r(U)p.r(C)p.r(C)p.r(U)p.r(U)p.r(C)p.r(C)p.r(A)p.d(T)p.d(T)}|RNA2{r(U)p.r(G)p.r(G)p.r(A)p.r(A)p.r(G)p.r(G)p.r(A)p.r(A)p.r(U)p.r(A)p.r(G)p.r(U)p.r(U)p.r(C)p.r(A)p.r(A)p.r(G)p.r(U)p.d(T)p.d(T)}$$$RNA1{StrandType:ss}|RNA2{StrandType:as}$,96.1%
13,RNA1{r(A)p.r(G)p.r(A)p.r(A)p.r(C)p.r(C)p.r(A)p.r(G)p.r(U)p.r(U)p.r(C)p.r(C)p.r(U)p.r(G)p.r(G)p.r(C)p.r(A)p.r(U)p.r(C)p.d(T)p.d(T)}|RNA2{r(G)p.r(A)p.r(U)p.r(G)p.r(C)p.r(C)p.r(A)p.r(G)p.r(G)p.r(A)p.r(A)p.r(C)p.r(U)p.r(G)p.r(G)p.r(U)p.r(U)p.r(C)p.r(U)p.d(G)p.d(C)}$$$RNA1{StrandType:ss}|RNA2{StrandType:as}$,60.7%
14,RNA1{r(A)p.r(G)p.r(A)p.r(A)p.r(U)p.r(A)p.r(C)p.r(C)p.r(C)p.r(A)p.r(A)p.r(U)p.r(G)p.r(G)p.r(C)p.r(A)p.r(G)p.r(C)p.r(C)p.d(T)p.d(T)}|RNA2{r(G)p.r(G)p.r(C)p.r(U)p.r(G)p.r(C)p.r(C)p.r(A)p.r(U)p.r(U)p.r(G)p.r(G)p.r(G)p.r(U)p.r(A)p.r(U)p.r(U)p.r(C)p.r(U)p.d(T)p.d(C)}$$$RNA1{StrandType:ss}|RNA2{StrandType:as}$,44.7%
15,RNA1{r(A)p.r(G)p.r(A)p.r(U)p.r(A)p.r(U)p.r(U)p.r(U)p.r(U)p.r(G)p.r(A)p.r(A)p.r(A)p.r(G)p.r(A)p.r(U)p.r(A)p.r(A)p.r(G)p.d(T)p.d(T)}|RNA2{r(C)p.r(U)p.r(U)p.r(A)p.r(U)p.r(C)p.r(U)p.r(U)p.r(U)p.r(C)p.r(A)p.r(A)p.r(A)p.r(A)p.r(U)p.r(A)p.r(U)p.r(C)p.r(U)p.d(A)p.d(G)}$$$RNA1{StrandType:ss}|RNA2{StrandType:as}$,57.1%
16,RNA1{r(A)p.r(G)p.r(C)p.r(C)p.r(C)p.r(A)p.r(A)p.r(G)p.r(C)p.r(C)p.r(A)p.r(U)p.r(A)p.r(G)p.r(A)p.r(A)p.r(A)p.r(C)p.r(A)p.d(T)p.d(T)}|RNA2{r(U)p.r(G)p.r(U)p.r(U)p.r(U)p.r(C)p.r(U)p.r(A)p.r(U)p.r(G)p.r(G)p.r(C)p.r(U)p.r(U)p.r(G)p.r(G)p.r(G)p.r(C)p.r(U)p.d(T)p.d(C)}$$$RNA1{StrandType:ss}|RNA2{StrandType:as}$,91.7%
17,RNA1{r(A)p.r(G)p.r(C)p.r(G)p.r(G)p.r(A)p.r(G)p.r(C)p.r(A)p.r(G)p.r(U)p.r(G)p.r(G)p.r(A)p.r(A)p.r(G)p.r(A)p.r(C)p.r(C)p.d(T)p.d(T)}|RNA2{r(G)p.r(G)p.r(U)p.r(C)p.r(U)p.r(U)p.r(C)p.r(C)p.r(A)p.r(C)p.r(U)p.r(G)p.r(C)p.r(U)p.r(C)p.r(C)p.r(G)p.r(C)p.r(U)p.d(A)p.d(C)}$$$RNA1{StrandType:ss}|RNA2{StrandType:as}$,43.9%
18,RNA1{r(A)p.r(U)p.r(A)p.r(G)p.r(A)p.r(A)p.r(A)p.r(C)p.r(A)p.r(G)p.r(C)p.r(U)p.r(A)p.r(G)p.r(A)p.r(G)p.r(C)p.r(A)p.r(U)p.d(T)p.d(T)}|RNA2{r(A)p.r(U)p.r(G)p.r(C)p.r(U)p.r(C)p.r(U)p.r(A)p.r(G)p.r(C)p.r(U)p.r(G)p.r(U)p.r(U)p.r(U)p.r(C)p.r(U)p.r(A)p.r(U)p.d(G)p.d(G)}$$$RNA1{StrandType:ss}|RNA2{StrandType:as}$,91.8%
19,RNA1{r(A)p.r(U)p.r(C)p.r(A)p.r(U)p.r(C)p.r(C)p.r(U)p.r(A)p.r(A)p.r(U)p.r(G)p.r(U)p.r(A)p.r(G)p.r(A)p.r(C)p.r(A)p.r(A)p.d(T)p.d(T)}|RNA2{r(U)p.r(U)p.r(G)p.r(U)p.r(C)p.r(U)p.r(A)p.r(C)p.r(A)p.r(U)p.r(U)p.r(A)p.r(G)p.r(G)p.r(A)p.r(U)p.r(G)p.r(A)p.r(U)p.d(A)p.d(A)}$$$RNA1{StrandType:ss}|RNA2{StrandType:as}$,46.4%
20,RNA1{r(A)p.r(U)p.r(C)p.r(C)p.r(G)p.r(C)p.r(A)p.r(C)p.r(A)p.r(G)p.r(U)p.r(U)p.r(C)p.r(U)p.r(G)p.r(C)p.r(U)p.r(A)p.r(U)p.d(T)p.d(T)}|RNA2{r(A)p.r(U)p.r(A)p.r(G)p.r(C)p.r(A)p.r(G)p.r(A)p.r(A)p.r(C)p.r(U)p.r(G)p.r(U)p.r(G)p.r(C)p.r(G)p.r(G)p.r(A)p.r(U)p.d(C)p.d(T)}$$$RNA1{StrandType:ss}|RNA2{StrandType:as}$,54.2%
